Results reported in patent US20220401514A1, “ANTIMICROBIAL, BACTERIOPHAGE-DERIVED POLYPEPTIDES AND THEIR USE AGAINST GRAM-NEGATIVE AND ACID-FAST BACTERIA” (CONTRAFECT CORPORATION, priority 2019, published 2022).
Like-named read-outs stand apart in the source and are kept apart here.

Tests used:
[1] = system: carbapenem-resistant P. aeruginosa clinical isolate CFS-1292; experiment: MIC by modified CLSI broth microdilution against P. aeruginosa CFS-1292 (CAA, CAA + human serum); type: cell-based, Pseudomonas aeruginosa
[2] = system: Pseudomonas aeruginosa; experiment: microbe, parasite or virus in culture; type: cell-based; conditions: P. aeruginosa isolates (n per peptide in table)
[3] = system: Enterobacter cloacae; experiment: microbe, parasite or virus in culture; type: cell-based
In short: (§1)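 Read-out is the minimal inhibitory concentration of each peptide, measured in serum-supplemented CAA.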

[4] = system: Escherichia coli; experiment: microbe, parasite or virus in culture; type: cell-based
In short: as §1

[5] = system: Klebsiella pneumoniae; type: cell-based
Protocol: (§2) Determination of Minimal Inhibitory Concentrations (MIC).
(§3) Additional MIC testing was performed for several peptides against the ESKAPE pathogens Escherichia coli, Enterobacter cloacae, Klebsiella pneumoniae, and Acinetobacter baumannii, in CAA supplemented with human serum (Table D).

[6] = system: Acinetobacter baumannii; experiment: microbe, parasite or virus in culture; type: cell-based
[7] = system: S. maltophilia; experiment: MIC against S. maltophilia isolates; type: cell-based, Stenotrophomonas maltophilia; conditions: S. maltophilia isolates (n per peptide in table)
In short: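 Chp peptides were tested on a set of S. maltophilia isolates (n = isolates per species), with minimal inhibitory concentrations given in μg/mL.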

[8] = system: Pseudomonas aeruginosa, Escherichia coli, Enterobacter cloacae, Klebsiella pneumoniae, and Acinetobacter baumannii; experiment: MIC against a range of Gram-negative organisms (statements covering several species); type: cell-based; conditions: Tables 40-44 isolates
Protocol: as §2, §3

[9] = system: carbapenem-resistant bacterial strains; experiment: organism not typed; type: cell-based
From the text: as §2

[10] = system: P. aeruginosa; experiment: 24-hour time-kill assay at 0.2x, 1x, 5x MIC in CAA, P. aeruginosa; type: cell-based, Pseudomonas aeruginosa
Protocol: The time-kill assays were performed in CAA media at 37° C. with aeration. Quantitative plating was performed at time periods of 0 hours, 1 hour, 3 hours, and 24 hours. The following Chp peptides were evaluated: Chp2, Chp4, Chp2-M1, Chp4-M1, Chp6, Chp6-M1, Chp10, Chp10-M1, Ecp3, Ecp3-M1, Unp2, Unp2-M1, and Ecp1-M1.

[11] = Stability assessment in 100% CAA; type: in vitro ADME; parameters: unit not given beside the values
Protocol: Stability was assessed after incubation in 100% human serum at 37° C. after 10 minutes, 1 hour, and 2 hours.
Stability assessment was further conducted in 100% CAA and rabbit serum using the same methodology discussed above.

[12] = system: M. smegmatis; experiment: 45 hr MIC against M. smegmatis (NTM), Mueller Hinton broth; type: cell-based, Mycobacterium smegmatis
[13] = system: M. fortuitum; experiment: 45 hr MIC against M. fortuitum (NTM); type: cell-based, Mycobacterium fortuitum; conditions: M. fortuitum subsp. Fortuitum da Costa Cruz. ATCC 6841
[14] = system: M. avium; experiment: 45 hr MIC against M. avium (NTM); type: cell-based, Mycobacterium avium; conditions: M. avium Chester ATCC 700898
[15] = system: M. scrofulaceum; experiment: 45 hr MIC against M. scrofulaceum (NTM); type: cell-based, Mycobacterium scrofulaceum; conditions: M. scrofulaceum Prissick and Masson ATCC 19981
[16] = system: M. intracellulare; experiment: 45 hr MIC against M. intracellulare (NTM); type: cell-based, Mycobacterium intracellulare; conditions: M. intracellulare (Cuttino and McCabe) Runyon ATCC 13950
[17] = system: P. aeruginosa strain CFS-1292; experiment: MIC in presence and absence of NaCl (140 mM); type: cell-based, Pseudomonas aeruginosa
Protocol: Certain Chp peptides were evaluated over a range of physiological NaCl levels and pH values, and were further evaluated for activity in the presence of various divalent cations.

[18] = system: P. aeruginosa strain CFS-1292; experiment: MIC at pH 6, pH 7 and pH 8; type: cell-based, Pseudomonas aeruginosa
Protocol: The Chp peptides were further evaluated at varying pH levels. The MIC values were determined at pH 6, pH 7, and pH 8 for 18 different Chp peptides against P. aeruginosa strain CFS-1292. […]

[19] = system: P. aeruginosa strain CFS-1292; experiment: MIC in presence of divalent cations (calcium chloride, magnesium sulfate); type: cell-based, Pseudomonas aeruginosa
Protocol: Next, Chp peptides were evaluated in the presence of different divalent cations. […]; (2) in the presence of 2 mM calcium chloride alone; (3) in the presence of 1 mM magnesium sulfate alone; and (4) in the presence of both 2 mM calcium chloride and 1 mM magnesium sulfate. […]

[20] = system: P. aeruginosa strain CFS-1292; experiment: MIC in presence and absence of Survanta pulmonary surfactant; type: cell-based, Pseudomonas aeruginosa
[21] = system: P. aeruginosa strain CFS-1292; experiment: MIC in presence of mouse, rat, rabbit and human serum ([…] each); type: cell-based, Pseudomonas aeruginosa; conditions: P. aeruginosa CFS-1292
Protocol: The activity of several Chp peptides against P. aeruginosa strain CFS-1292 in animal serum was evaluated. […] Rat, mouse, and rabbit serum were all obtained from pooled gender samples.

[22] = system: M. kansasii Hauduroy ATCC 12478; experiment: 45 hr MIC against M. kansasii (NTM), Mueller Hinton broth; type: cell-based, Mycobacterium kansasii
[23] = system: Mycobacterium tuberculosis strains
Protocol: MIC values for various Chp peptides were determined using the CLSI method for broth microdilution in 96-well microtiter format.
Next, MIC values for various Chp peptides were determined using the CLSI method above for broth microdilution in 96-well microtiter format for two different Mycobacterium tuberculosis strains. The MIC was determined as explained above for the NTM strains.

[24] = E. cloacae isolates (n per peptide in table)
[25] = E. coli isolates (n per peptide in table)
[26] = K. pneumoniae isolates (n per peptide in table)
[27] = A. baumannii isolates (n per peptide in table)

For “MKRRKLSKKKSRKIFTRGAVNVKKRNLRARPMRGGFRI [Chp10]”, the “MIC (μg/mL) against CFS-1292 in 100% CAA (1st run/2nd run)” value ([1]; 100% CAA, 1st run or single value) was 0.5 µg/mL, the “MIC (μg/mL) against CFS-1292 in CAA + […] human serum” value ([1]; CAA + […] human serum) was 0.5 µg/mL and the MIC50 [2] was 4 µg/mL. For the same sequence, the MIC100 [2] was 8 µg/mL, the “MIC Range” value [2] was 0.5 to 8 µg/mL and the MIC50 [3, 24] was 0.25 µg/mL. The MIC100 [3, 24] was 1 µg/mL, the “MIC Range” value [3, 24] was 0.125 to 2 µg/mL and the MIC ([3]; Enterobacter cloacae ATCC 13047, CAA supplemented with human serum) was 1 µg/mL. The MIC50 [4, 25] was 0.5 µg/mL, the MIC100 [4, 25] was 1 µg/mL and the “MIC Range” value [4, 25] was 0.03 to 0.2 µg/mL. The MIC ([4]; Escherichia coli ATCC 25922, CAA supplemented with human serum) was 0.5 µg/mL, the MIC50 [5, 26] was 0.25 µg/mL and the MIC100 [5, 26] was 0.5 µg/mL. The “MIC Range” value [5, 26] was 0.125 to 0.5 µg/mL, the MIC ([5]; Klebsiella pneumoniae HM-44, CAA supplemented with human serum) was 0.5 µg/mL and the MIC50 [6, 27] was 0.5 µg/mL. The MIC100 [6, 27] was 0.5 µg/mL, the “MIC Range” value [6, 27] was 0.25 to 0.5 µg/mL and the MIC ([6]; Acinetobacter baumannii ATCC BAA 747, CAA supplemented with human serum) was 2 µg/mL. For the same sequence, the MIC50 [7] was 8 µg/mL, the MIC100 [7] was over 8 µg/mL and the “activity (good = MIC100 of ≤4) against all of P. aeruginosa, K. pneumoniae, A. baumannii, E. cloacae, and E. coli” value [8] was “good activity”. For the same sequence, the MIC ([9]; carbapenem-resistant isolate PA19) was 0.5 µg/mL, the MIC ([9]; carbapenem-resistant isolate PA20) was 8 µg/mL and the MIC ([9]; carbapenem-resistant isolate PA21) was 8 µg/mL. For the same sequence, the MIC ([9]; carbapenem-resistant isolate PA22) was 8 µg/mL, the MIC ([9]; carbapenem-resistant isolate PA23) was 4 µg/mL and the MIC ([9]; carbapenem-resistant isolate PA24) was 4 µg/mL. The MIC ([9]; carbapenem-resistant isolate WLC-452) was 1 µg/mL, the “Log10 CFU/mL compared to untreated control buffer (24-hour time-kill)” value [10] was “all but Chp10 maintaining strong efficacy up to 24 hours” and the “MIC (100% CAA)” value [11] was 0.5. The “45 hr MIC” value ([12]; M. smegmatis MC^2 155, Run #1) was 2 µg/mL, the “45 hr MIC” value ([12]; M. smegmatis MC^2 155, Run #2) was 1 µg/mL and the “45 hr MIC” value [13] was 1 µg/mL. For the same sequence, the “45 hr MIC” value [14] was 0.5 µg/mL, the “45 hr MIC” value [15] was 0.5 µg/mL and the “45 hr MIC” value [16] was 0.5 µg/mL. The “Fold change in MIC” value ([17]; CAA + 140 mM NaCl versus CAA without added NaCl) was 4, the MIC, CAA + 140 mM NaCl ([17]; CAA + 140 mM NaCl, P. aeruginosa CFS-1292) was 2 µg/mL and the MIC, CAA (no added NaCl) ([17]; CAA, no added NaCl, P. aeruginosa CFS-1292) was 0.5 µg/mL. The MIC ([18]; CAA media (pH 7)) was 0.5 µg/mL, the MIC ([18]; pH 6) was 2 µg/mL and the MIC ([18]; pH 7) was 1 µg/mL. The MIC ([18]; pH 8) was 1 µg/mL, the MIC ([19]; CAA media + 1 mM MgSO4) was 1 µg/mL and the MIC ([19]; CAA media + 2 mM CaCl2) was 1 µg/mL. It also gave an MIC ([19]; CAA media + + 1 mM MgSO4) of 2 µg/mL, an MIC ([19]; CAA media alone) of 0.5 µg/mL and an MIC ([20]; CAA media + 0.19 mg/mL Survanta) of 0.5 µg/mL. The MIC ([20]; CAA media + […] Survanta) was 0.5 µg/mL, the MIC ([20]; CAA media alone) was 0.5 µg/mL and the “MIC BALB/C Mouse Serum” value ([21]; BALB/C mouse serum […]) was 32 µg/mL. For the same sequence, the “MIC CAA” value ([21]; CAA) was 1 µg/mL, the “MIC New Zealand White Rabbit Serum” value ([21]; New Zealand White rabbit serum […]) was 4 µg/mL and the “MIC Sprague Dawley Rat Serum” value ([21]; Sprague Dawley rat serum […]) was 4 µg/mL. The “MIC Human Serum” value ([21]; human serum […]) was 1 µg/mL, the “45 hr MIC” value [22] was 4 µg/mL and the MIC ([23]; Mycobacterium tuberculosis (Zopf) Lehmann and Neumann ATCC 25177) was 32 µg/mL. It also gave an MIC ([23]; Mycobacterium tuberculosis (Zopf) Lehmann and Neumann ATCC 35817) of 8 µg/mL.
